Experimental data as given in US12006294B2, “Therapeutic compounds” (REGENTS OF THE UNIVERSITY OF MINNESOTA, priority 2017, dated 2024).
Counter-ions that a name gives are not always drawn. Like-named read-outs stand apart in the source and are kept apart here.

Tested on: Hela Cells
Assay: Cellular ER stress model (tunicamycin, WST-8 cell viability)
Details: Homo sapiens, HeLa, 48 h
[1] = read-out: % Cell Survival Cmpd(2.5 μM) + Tuni
[2] = read-out: Compounds ERS (vs Tn)
[3] = read-out: % Cell Survival Cmpd(2.5 μM) + Tuni, Hela cells, compound 2.5 μM + tunicamycin, WST-8 viability 48 hours after tunicamycin treatment
[4] = read-out: Compounds ERS (vs Tn), ERS activity vs Tuni = % cell survival (compound)/% cell survival (tunicamycin), compound 2.5 μM

Row | Structure (SMILES) | viability at 2.5 µM [1] | viability at 2.5 µM [2] | viability at 2.5 µM [3] | viability at 2.5 µM [4]
1 | N=C(N)N/N=C/c1c(O)cccc1Cl [BC2-59-2] | 39% | 94% |  | 
2 | NC(=S)N/N=C/c1c(F)cccc1Cl [JM1-113-2, (E)-2-(2-chloro-6-fluorobenzylidene)hydrazine-1-carbothioamide] |  |  | 27.6% | 40%
3 | Cc1cccc(C)c1/C=N/NC(N)=S [JM1-121-2, (E)-2-(2,6-dimethylbenzylidene)hydrazine-1-carbothioamide] |  |  | 23.4% | 34%
4 | NC(=S)N/N=C/c1ccc2ccccc2c1 [JM1-129-2, (E)-2-(naphthalen-2-ylmethylene)hydrazine-1-carbothioamide] |  |  | 24.1% | 35%
5 | N=C(N)N/N=C/c1c(Br)cccc1[N+](=O)[O-] [JM1-175-2, (E)-2-(2-bromo-6-nitrobenzylidene)hydrazine-1-carboximidamide acetate] |  |  | 44.9% | 65%
6 | N=C(N)N/N=C/c1cc(F)ccc1Cl [JM1-185-2, (E)-2-(2-chloro-5-fluorobenzylidene)hydrazine-1-carboximidamide acetate] |  |  | 54.4% | 79%
7 | N=C(N)N/N=C/c1c(F)cccc1F [JM1-191-2, (E)-2-(2,6-difluorobenzylidene)hydrazine-1-carboximidamide acetate] |  |  | 45.7% | 66%
8 | Nc1ccnn1-c1c(Cl)cccc1Cl [JM1-217-2, 1-(2,6-dichlorophenyl)-1H-pyrazol-5-amine] |  |  | 40.6% | 97%
9 | N=C(N)N/N=C/c1cc(C(F)(F)F)ccc1Cl [JM1-221-2, (E)-2-(2-chloro-5-(trifluoromethyl)benzylidene)hydrazine-1-carboximidamide acetate] |  |  | 38.6% | 56%
10 | N=C(N)N/N=C/c1c(F)cccc1C(F)(F)F [JM1-223-2, (E)-2-(2-fluoro-6-(trifluoromethyl)benzylidene)hydrazine-1-carboximidamide acetate] |  |  | 37.5% | 54%
11 | CC/C(=N\NC(=N)N)c1cccc(Cl)c1 [JM1-257-2, (E)-2-(1-(3-chlorophenyl)propylidene)hydrazine-1-carboximidamide] |  |  | 34.6% | 50%
12 | N=C(N)Nc1ccnn1-c1c(Cl)cccc1Cl [JM1-285-2, 1-(1-(2,6-dichlorophenyl)-1H-pyrazol-5-yl)guanidine] |  |  | 41.9% | 101%
13 | Cc1cccc(C)c1NC1=NCCN1 [JM2-59-2, N-(2,6-dimethylphenyl)-4,5-dihydro-1H-imidazol-2-amine] | 46.2% | 67% |  | 
14 | COc1cc(Cl)c(/C=N/NC(=N)N)c(Cl)c1 [JM2-63-2, (E)-2-(2,6-dichloro-4-methoxybenzylidene)hydrazine-1-carboximidamide] |  |  | 44.6% | 65%
15 | Clc1cccc(Cl)c1/C=N/NC1=NCCN1 [JM2-83-2, (E)-2-(2-(2,6-dichlorobenzylidene)hydrazinyl)-4,5-dihydro-1H-imidazole hydrochloride] |  |  | 53.8% | 125%
16 | Cc1cccc(C)c1/C=N/NC1=NCCN1 [JM2-85-2, (E)-2-(2-(2,6-dimethylbenzylidene)hydrazinyl)-4,5-dihydro-1H-imidazole hydrochloride] |  |  | 62.3% | 145%

Row | Structure (SMILES) | viability at 2.5 µM [1] | viability at 2.5 µM [2] | viability at 2.5 µM [3] | viability at 2.5 µM [4]
17 | Clc1cccc(Cl)c1CC1=NCCN1 [JM2-87-2, 2-(2,6-dichlorobenzyl)-4,5-dihydro-1H-imidazole] |  |  | 54.3% | 124%
18 | O=[N+]([O-])c1cccc(Cl)c1/C=N/NC1=NCCN1 [JM2-89-2, (E)-2-(2-(2-chloro-6-nitrobenzylidene)hydrazinyl)-4,5-dihydro-1H-imidazole hydrochloride] |  |  | 56.9% | 130%
19 | Clc1ccc(/C=N/NC2=NCCN2)cc1Cl [JM2-91-2, (E)-2-(2-(3,4-dichlorobenzylidene)hydrazinyl)-4,5-dihydro-1H-imidazole hydrochloride] |  |  | 54.5% | 124%
20 | Fc1cccc(Cl)c1/C=N/NC1=NCCN1 [JM2-95-2, (E)-2-(2-(2-chloro-6-fluorobenzylidene)hydrazinyl)-4,5-dihydro-1H-imidazole hydrochloride] |  |  | 53% | 121%
21 | Clc1cccc(Cl)c1NC1=NCCN1 [JM2-97-2, N-(2,6-dichlorophenyl)-4,5-dihydro-1H-imidazol-2-amine hydrochloride] | 63.1% | 147% |  | 
22 | CC(C1=NCCN1)c1c(Cl)cccc1Cl (stereo not shown) [JM2-101-2, 2-(1-(2,6-dichlorophenyl)ethyl)-4,5-dihydro-1H-imidazole] |  |  | 49.5% | 107%
23 | Fc1cccc(F)c1/C=N/NC1=NCCN1 [JM2-103-2, (E)-2-(2-(2,6-difluorobenzylidene)hydrazinyl)-4,5-dihydro-1H-imidazole hydrochloride] |  |  | 48.7% | 105%
24 | O=[N+]([O-])c1cccc(Br)c1/C=N/NC1=NCCN1 [JM2-109-2, (E)-2-(2-(2-bromo-6-nitrobenzylidene)hydrazinyl)-4,5-dihydro-1H-imidazole hydrochloride] |  |  | 50.2% | 108%
25 | Clc1ccccc1/C=N/NC1=NCCN1 [JM2-113-2, (E)-2-(2-(2-chlorobenzylidene)hydrazinyl)-4,5-dihydro-1H-imidazole hydrochloride] |  |  | 35.2% | 111%
26 | Fc1ccccc1/C=N/NC1=NCCN1 [JM2-115-2, (E)-2-(2-(2-fluorobenzylidene)hydrazinyl)-4,5-dihydro-1H-imidazole hydrochloride] |  |  | 35.6% | 112%
27 | FC(F)(F)c1cccc(Cl)c1/C=N/NC1=NCCN1 [JM2-131-2, (E)-2-(2-(2-chloro-6-(trifluoromethyl)benzylidene)hydrazinyl)-4,5-dihydro-1H-imidazole hydrochloride] |  |  | 62.6% | 198%
28 | CNC(=N)N/N=C/c1c(Cl)cccc1Cl [JM2-171-2, (E)-2-(2,6-dichlorobenzylidene)-N-methylhydrazine-1-carboximidamide hydroiodide] |  |  | 67% | 212%
29 | N=C(N/N=C/c1c(Cl)cccc1Cl)Nc1ccccc1 [JM2-175-2, (E)-2-(2,6-dichlorobenzylidene)-N-phenylhydrazine-1-carboximidamide hydroiodide] |  |  | 34.3% | 108%
30 | N=C(N)NNCc1c(Cl)cccc1Cl [JM2-185-2] |  |  | 31.7% | 100%
31 | Brc1ccccc1/C=N/NC1=NCCN1 [JM2-191-2, (E)-2-(2-(2-bromobenzylidene)hydrazinyl)-4,5-dihydro-1H-imidazole hydrochloride] |  |  | 39.5% | 125%
32 | N=C(N)N/N=C/c1c(Cl)cc(OCc2ccccc2)cc1Cl [JM2-195-2, (E)-2-(4-(benzyloxy)-2,6-dichlorobenzylidene)hydrazine-1-carboximidamide acetate] |  |  | 24.1% | 76%
